From ChEMBL document CHEMBL5665443, “Enzyme Inhibitor Single Concentration assay results for EUbOPEN Chemogenomics Library” (2024)

What was measured:
Conditions in all cases: Hit No
[1] = molecular target: Methyl-CpG-binding domain protein 4 (Homo sapiens) (UniProt O95243);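 note: MBD4 activity read as fluorescence at 594 nm from cleavage and release of a quenched duplex DNA oligonucleotide, with APE1 coupled to incise the strand and raise turnover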
Description: Inhibition of MBD4 by quantifying inhibition of MBD4-mediated cleavage and dissociation of quenched duplex DNA oligonucleotides, measured as fluorescence at 594 nm. To generate a functional strand incision and increase turn-over this assay is coupled to APE1.

[2] = molecular target: T1, Adenine DNA glycosylase (Homo sapiens) (UniProt Q9UIF7);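 note: human MUTYH activity read as 594 nm fluorescence from cleavage and release of a quenched DNA duplex, coupled with APE1 for strand incision, lower signal meaning inhibition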
T1 sequence (whole entry): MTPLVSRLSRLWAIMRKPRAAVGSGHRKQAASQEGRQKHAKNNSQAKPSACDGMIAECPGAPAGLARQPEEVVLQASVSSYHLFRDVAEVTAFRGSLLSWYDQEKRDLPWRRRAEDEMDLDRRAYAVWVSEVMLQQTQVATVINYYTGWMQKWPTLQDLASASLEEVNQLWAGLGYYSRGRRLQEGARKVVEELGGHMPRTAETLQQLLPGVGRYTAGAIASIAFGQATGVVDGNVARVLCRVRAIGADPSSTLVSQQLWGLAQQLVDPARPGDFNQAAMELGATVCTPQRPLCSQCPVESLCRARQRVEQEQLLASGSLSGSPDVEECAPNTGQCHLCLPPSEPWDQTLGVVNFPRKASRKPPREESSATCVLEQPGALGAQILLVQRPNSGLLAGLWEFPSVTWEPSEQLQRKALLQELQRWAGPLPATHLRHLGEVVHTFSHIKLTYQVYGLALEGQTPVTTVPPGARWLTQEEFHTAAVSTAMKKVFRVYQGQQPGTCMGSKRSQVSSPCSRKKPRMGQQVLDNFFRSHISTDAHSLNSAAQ
Description: Inhibition of MUTYH by quantifying inhibition of MUTYH-mediated cleavage and dissociation of quenched duplex DNA oligonucleotides, measured as fluorescence at 594 nm. To generate a functional strand incision and increase turn-over this assay is coupled to APE1.

[3] = molecular target: Endonuclease 8-like 1 (Homo sapiens) (UniProt Q96FI4);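 note: fluorescence at 594 nm from quenched duplex DNA oligonucleotides released by NEIL1 cleavage and strand separation, reported as reduction of this enzyme activity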
Sequence of Endonuclease 8-like 1 (Homo sapiens) (Q96FI4 whole entry): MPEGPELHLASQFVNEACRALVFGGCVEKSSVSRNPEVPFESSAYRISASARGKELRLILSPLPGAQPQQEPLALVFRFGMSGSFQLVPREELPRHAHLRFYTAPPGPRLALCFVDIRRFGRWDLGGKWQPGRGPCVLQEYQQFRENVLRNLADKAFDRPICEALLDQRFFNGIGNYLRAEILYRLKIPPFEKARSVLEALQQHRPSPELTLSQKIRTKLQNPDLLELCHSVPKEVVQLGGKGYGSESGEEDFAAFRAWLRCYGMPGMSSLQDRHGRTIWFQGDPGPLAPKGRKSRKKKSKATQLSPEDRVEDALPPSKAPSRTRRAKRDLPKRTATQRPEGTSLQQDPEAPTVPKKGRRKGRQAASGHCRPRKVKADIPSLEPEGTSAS
Description: Inhibition of NEIL1 by quantifying inhibition of NEIL1-mediated cleavage and dissociation of quenched duplex DNA oligonucleotides, measured as fluorescence at 594 nm.

[4] = molecular target: T2, Single-strand selective monofunctional uracil DNA glycosylase (Homo sapiens) (UniProt Q53HV7);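 note: enzymatic SMUG1 assay coupled with APE1, reading fluorescence at 594 nm released when a quenched double-stranded DNA oligonucleotide substrate is cleaved and separated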
T2 sequence (whole entry): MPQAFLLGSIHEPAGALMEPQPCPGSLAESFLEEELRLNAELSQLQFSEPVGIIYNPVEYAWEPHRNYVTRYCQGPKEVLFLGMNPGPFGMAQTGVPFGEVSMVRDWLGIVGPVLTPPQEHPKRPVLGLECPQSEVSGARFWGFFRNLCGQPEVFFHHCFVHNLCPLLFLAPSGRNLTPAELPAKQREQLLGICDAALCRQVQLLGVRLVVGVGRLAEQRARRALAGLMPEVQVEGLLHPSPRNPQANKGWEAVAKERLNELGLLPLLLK
Description: Inhibition of SMUG1 by quantifying inhibition of SMUG1-mediated cleavage and dissociation of quenched duplex DNA oligonucleotides, measured as fluorescence at 594 nm. To generate a functional strand incision and increase turn-over this assay is coupled to APE1.

[5] = molecular target: Uracil-DNA glycosylase (Homo sapiens) (UniProt P13051);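 note: UNG excision on a quenched double-stranded DNA oligo probe, with APE1 added for strand incision and turnover, read as fluorescence at 594 nm as strands separate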
Sequence of Uracil-DNA glycosylase (Homo sapiens) (P13051 whole entry): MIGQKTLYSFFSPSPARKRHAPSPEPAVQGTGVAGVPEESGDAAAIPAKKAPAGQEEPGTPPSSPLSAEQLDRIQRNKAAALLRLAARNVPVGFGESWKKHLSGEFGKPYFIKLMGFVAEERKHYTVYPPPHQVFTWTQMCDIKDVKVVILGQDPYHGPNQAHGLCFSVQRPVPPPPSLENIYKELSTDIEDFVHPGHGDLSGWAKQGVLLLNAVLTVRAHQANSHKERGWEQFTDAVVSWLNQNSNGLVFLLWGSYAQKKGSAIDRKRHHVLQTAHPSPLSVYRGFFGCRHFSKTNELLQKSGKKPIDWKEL
Description: Inhibition of UNG by quantifying inhibition of UNG-mediated cleavage and dissociation of quenched duplex DNA oligonucleotides, measured as fluorescence at 594 nm. To generate a functional strand incision and increase turn-over this assay is coupled to APE1.

[6] = molecular target: N-glycosylase/DNA lyase (Homo sapiens) (UniProt O15527);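 note: OGG1 cleavage of a quenched duplex DNA oligonucleotide, coupled to APE1 for strand incision, read as fluorescence at 594 nm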
Sequence of N-glycosylase/DNA lyase (Homo sapiens) (O15527 whole entry): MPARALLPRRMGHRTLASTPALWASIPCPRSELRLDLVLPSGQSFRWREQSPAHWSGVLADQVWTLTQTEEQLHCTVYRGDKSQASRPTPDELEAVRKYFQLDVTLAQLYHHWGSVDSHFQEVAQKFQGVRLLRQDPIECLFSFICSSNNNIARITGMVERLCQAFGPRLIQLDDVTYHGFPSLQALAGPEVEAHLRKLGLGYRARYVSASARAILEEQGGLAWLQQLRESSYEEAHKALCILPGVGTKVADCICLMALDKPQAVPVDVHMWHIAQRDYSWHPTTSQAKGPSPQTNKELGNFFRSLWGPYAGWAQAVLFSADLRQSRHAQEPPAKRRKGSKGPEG
Description: Inhibition of OGG1 by quantifying inhibition of OGG1-mediated cleavage and dissociation of quenched duplex DNA oligonucleotides, measured as fluorescence at 594 nm. To generate a functional strand incision and increase turn-over this assay is coupled to APE1.

[7] = molecular target: G/T mismatch-specific thymine DNA glycosylase (Homo sapiens) (UniProt Q13569);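 note: human TDG cleavage of quenched duplex DNA oligonucleotides coupled to APE1, strand release read as fluorescence at 594 nm, inhibition of TDG activity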
Sequence of G/T mismatch-specific thymine DNA glycosylase (Homo sapiens) (Q13569 whole entry): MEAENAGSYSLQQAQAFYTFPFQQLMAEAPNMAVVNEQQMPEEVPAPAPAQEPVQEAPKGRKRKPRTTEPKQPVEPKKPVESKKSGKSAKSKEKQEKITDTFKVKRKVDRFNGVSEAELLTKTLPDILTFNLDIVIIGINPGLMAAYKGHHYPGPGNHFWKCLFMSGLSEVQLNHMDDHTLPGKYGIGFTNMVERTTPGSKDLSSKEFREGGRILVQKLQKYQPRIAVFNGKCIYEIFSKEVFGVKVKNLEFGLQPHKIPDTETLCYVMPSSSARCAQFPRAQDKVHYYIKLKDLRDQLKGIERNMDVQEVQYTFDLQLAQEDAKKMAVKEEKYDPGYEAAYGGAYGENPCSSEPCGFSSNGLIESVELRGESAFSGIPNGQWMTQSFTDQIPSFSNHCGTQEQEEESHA
Description: Inhibition of TDG by quantifying inhibition of TDG-mediated cleavage and dissociation of quenched duplex DNA oligonucleotides, measured as fluorescence at 594 nm. To generate a functional strand incision and increase turn-over this assay is coupled to APE1.

[8] = molecular target: T3, Endonuclease 8-like 2 (Homo sapiens) (UniProt Q969S2);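 note: fluorescence at 594 nm reports NEIL2 cutting and release of a quenched double-stranded DNA oligo substrate, reduced signal read as inhibition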
T3 sequence (whole entry): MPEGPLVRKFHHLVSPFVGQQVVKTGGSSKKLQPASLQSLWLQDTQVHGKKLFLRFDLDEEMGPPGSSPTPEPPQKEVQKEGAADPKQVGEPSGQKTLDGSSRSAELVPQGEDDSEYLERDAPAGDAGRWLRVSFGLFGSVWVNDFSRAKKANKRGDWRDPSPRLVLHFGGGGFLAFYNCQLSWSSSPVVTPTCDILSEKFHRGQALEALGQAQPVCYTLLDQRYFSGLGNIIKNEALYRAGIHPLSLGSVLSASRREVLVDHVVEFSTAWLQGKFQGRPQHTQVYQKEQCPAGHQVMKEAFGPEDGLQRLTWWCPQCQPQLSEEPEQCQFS
Description: Inhibition of NEIL2 by quantifying inhibition of NEIL2-mediated cleavage and dissociation of quenched duplex DNA oligonucleotides, measured as fluorescence at 594 nm.

Sequence of Methyl-CpG-binding domain protein 4 (Homo sapiens) (O95243 whole entry, the tested form may be a part): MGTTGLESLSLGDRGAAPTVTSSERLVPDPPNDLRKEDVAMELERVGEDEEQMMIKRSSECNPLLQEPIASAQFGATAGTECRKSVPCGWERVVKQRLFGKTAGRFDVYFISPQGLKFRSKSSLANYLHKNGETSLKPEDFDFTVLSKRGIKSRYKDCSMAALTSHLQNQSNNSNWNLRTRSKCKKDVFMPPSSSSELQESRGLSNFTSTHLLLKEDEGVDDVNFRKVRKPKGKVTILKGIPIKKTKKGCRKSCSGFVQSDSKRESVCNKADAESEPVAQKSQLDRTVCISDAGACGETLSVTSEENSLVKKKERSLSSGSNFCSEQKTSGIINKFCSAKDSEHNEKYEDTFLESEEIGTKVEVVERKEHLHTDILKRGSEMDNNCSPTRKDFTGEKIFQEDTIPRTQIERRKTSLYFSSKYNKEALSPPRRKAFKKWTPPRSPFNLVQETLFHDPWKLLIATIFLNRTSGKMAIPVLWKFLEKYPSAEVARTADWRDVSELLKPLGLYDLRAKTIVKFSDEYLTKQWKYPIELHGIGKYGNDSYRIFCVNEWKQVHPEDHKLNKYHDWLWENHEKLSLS

CCOC(=O)c1cc2cc(-c3cc(C(=O)NCc4ccc(C(=O)O)cc4)nn3C)ccc2[nH]1
inhibition ([1]; Compound Concentration 1.0 uM): 61%
inhibition ([2]; Compound Concentration 1.0 uM): -1.36%
inhibition ([3]; Compound Concentration 1.0 uM): -4.68%
inhibition ([4]; Compound Concentration 1.0 uM): 6.69%
inhibition ([5]; Compound Concentration 1.0 uM): -2.54%
inhibition ([6]; Compound Concentration 1.0 uM): 9.53%
inhibition ([7]; Compound Concentration 1.0 uM): 41.7%
inhibition ([8]; Compound Concentration 1.0 uM): 11.2%

CC(C)c1c(CN(C)C(C)Cc2ccccc2)n(C)n(-c2ccccc2)c1=O (centres undefined)
inhibition ([1]; Compound Concentration 10.0 uM): 64.9%
inhibition ([2]; Compound Concentration 10.0 uM): 11%
inhibition ([3]; Compound Concentration 10.0 uM): 0.921%
inhibition ([4]; Compound Concentration 10.0 uM): 23.9%
inhibition ([5]; Compound Concentration 10.0 uM): 1.7%
inhibition ([6]; Compound Concentration 10.0 uM): 21.4%
inhibition ([7]; Compound Concentration 10.0 uM): 100%
inhibition ([8]; Compound Concentration 10.0 uM): -4.57%

COc1cc2ncn(-c3cc(OCc4ccccc4C(F)(F)F)c(C(N)=O)s3)c2cc1OC
inhibition ([1]; Compound Concentration 1.0 uM): 6.17%
inhibition ([2]; Compound Concentration 1.0 uM): -6.25%
inhibition ([3]; Compound Concentration 1.0 uM): -7%
inhibition ([4]; Compound Concentration 1.0 uM): 10.2%
inhibition ([5]; Compound Concentration 1.0 uM): 3.27%
inhibition ([6]; Compound Concentration 1.0 uM): 0.727%
inhibition ([7]; Compound Concentration 1.0 uM): 35.1%
inhibition ([8]; Compound Concentration 1.0 uM): -8.65%

Cn1cc(Nc2nccc(N3CC4CCC(C3)N4C(=O)[C@@H]3CC3(F)F)n2)cn1
inhibition ([1]; Compound Concentration 10.0 uM): -6.61%
inhibition ([2]; Compound Concentration 10.0 uM): -8.86%
inhibition ([3]; Compound Concentration 10.0 uM): 0.138%
inhibition ([4]; Compound Concentration 10.0 uM): 8.21%
inhibition ([5]; Compound Concentration 10.0 uM): -0.791%
inhibition ([6]; Compound Concentration 10.0 uM): -0.945%
inhibition ([7]; Compound Concentration 10.0 uM): 35.9%
inhibition ([8]; Compound Concentration 10.0 uM): -8.92%

Cc1cc(-c2ccnc(Nc3cnn(C)c3)n2)ccc1CNC(=O)N1CC(OC(C)C)C1
inhibition ([1]; Compound Concentration 10.0 uM): 12.6%
inhibition ([2]; Compound Concentration 10.0 uM): 22.5%
inhibition ([3]; Compound Concentration 10.0 uM): -3.03%
inhibition ([4]; Compound Concentration 10.0 uM): 28.1%
inhibition ([5]; Compound Concentration 10.0 uM): 4.16%
inhibition ([6]; Compound Concentration 10.0 uM): 9.56%
inhibition ([7]; Compound Concentration 10.0 uM): 44.6%
inhibition ([8]; Compound Concentration 10.0 uM): -6.23%

O=C(NC[C@@H]1[C@H]2CN(C(=O)OCc3cc(C(F)(F)F)cc(C(F)(F)F)c3)C[C@@H]12)c1ccc2[nH]nnc2c1
inhibition ([1]; Compound Concentration 10.0 uM): 48.7%
inhibition ([2]; Compound Concentration 10.0 uM): -6.99%
inhibition ([3]; Compound Concentration 10.0 uM): -8.32%
inhibition ([4]; Compound Concentration 10.0 uM): 8.85%
inhibition ([5]; Compound Concentration 10.0 uM): -1.24%
inhibition ([6]; Compound Concentration 10.0 uM): 19.9%
inhibition ([7]; Compound Concentration 10.0 uM): 43.8%
inhibition ([8]; Compound Concentration 10.0 uM): -6.36%

CCCOc1ccc([C@@H]2[C@@H](C(=O)O)[C@H](c3ccc4c(c3)OCO4)CN2CC(=O)Nc2c(CC)cccc2CC)cc1
inhibition ([1]; Compound Concentration 1.0 uM): 66.2%
inhibition ([2]; Compound Concentration 1.0 uM): -8.3%
inhibition ([3]; Compound Concentration 1.0 uM): -3.17%
inhibition ([4]; Compound Concentration 1.0 uM): 18.8%
inhibition ([5]; Compound Concentration 1.0 uM): 4.27%
inhibition ([6]; Compound Concentration 1.0 uM): 12%
inhibition ([7]; Compound Concentration 1.0 uM): 57.1%
inhibition ([8]; Compound Concentration 1.0 uM): 9.71%

N[C@@H]1CCCN(c2c(/C=C3\SC(=O)NC3=O)cccc2-c2ccccc2)C1
inhibition ([1]; Compound Concentration 1.0 uM): 5.7%
inhibition ([2]; Compound Concentration 1.0 uM): 3.22%
inhibition ([3]; Compound Concentration 1.0 uM): -5.54%
inhibition ([4]; Compound Concentration 1.0 uM): 28.4%
inhibition ([5]; Compound Concentration 1.0 uM): 7.16%
inhibition ([6]; Compound Concentration 1.0 uM): 16.9%
inhibition ([7]; Compound Concentration 1.0 uM): 64.1%
inhibition ([8]; Compound Concentration 1.0 uM): 1.04%

CN(C)[C@H]1CCN(c2cc(-c3ccccc3)nc3ccnn23)C1
inhibition ([1]; Compound Concentration 10.0 uM): 77.8%
inhibition ([2]; Compound Concentration 10.0 uM): 15.6%
inhibition ([3]; Compound Concentration 10.0 uM): 6.98%
inhibition ([4]; Compound Concentration 10.0 uM): 13.5%
inhibition ([5]; Compound Concentration 10.0 uM): 9.72%
inhibition ([6]; Compound Concentration 10.0 uM): 10.6%
inhibition ([7]; Compound Concentration 10.0 uM): 49%
inhibition ([8]; Compound Concentration 10.0 uM): 9.71%

CC1CCN(c2ccnc(NCc3cn(C)cn3)n2)CC1
inhibition ([1]; Compound Concentration 10.0 uM): 67.6%
inhibition ([2]; Compound Concentration 10.0 uM): 19.8%
inhibition ([3]; Compound Concentration 10.0 uM): 1.98%
inhibition ([4]; Compound Concentration 10.0 uM): 15.3%
inhibition ([5]; Compound Concentration 10.0 uM): 5.91%
inhibition ([6]; Compound Concentration 10.0 uM): 19.9%
inhibition ([7]; Compound Concentration 10.0 uM): 50.4%
inhibition ([8]; Compound Concentration 10.0 uM): 3.08%

O=C(NNS(=O)(=O)c1ccccc1)c1cc(-c2ccnnc2)ccc1F
inhibition ([1]; Compound Concentration 10.0 uM): 88.3%
inhibition ([2]; Compound Concentration 10.0 uM): 0.332%
inhibition ([3]; Compound Concentration 10.0 uM): -4.38%
inhibition ([4]; Compound Concentration 10.0 uM): 13.8%
inhibition ([5]; Compound Concentration 10.0 uM): 6.08%
inhibition ([6]; Compound Concentration 10.0 uM): 8.54%
inhibition ([7]; Compound Concentration 10.0 uM): 49.7%
inhibition ([8]; Compound Concentration 10.0 uM): 5.38%

Cc1nc(Cc2cccc(C(F)(F)F)c2)sc1-c1ccc(C(N)=O)nc1
inhibition ([1]; Compound Concentration 1.0 uM): 52%
inhibition ([2]; Compound Concentration 1.0 uM): -2.4%
inhibition ([3]; Compound Concentration 1.0 uM): -5.59%
inhibition ([4]; Compound Concentration 1.0 uM): 6%
inhibition ([5]; Compound Concentration 1.0 uM): -0.747%
inhibition ([6]; Compound Concentration 1.0 uM): 0.0328%
inhibition ([7]; Compound Concentration 1.0 uM): 96.5%
inhibition ([8]; Compound Concentration 1.0 uM): -3.29%

COc1cc(-c2cncc(-c3ccc(N4CCN(C(C)C)CC4)cc3)c2C)cc(F)c1C(N)=O
inhibition ([1]; Compound Concentration 10.0 uM): 0.764%
inhibition ([2]; Compound Concentration 10.0 uM): -6.43%
inhibition ([3]; Compound Concentration 10.0 uM): 5.68%
inhibition ([4]; Compound Concentration 10.0 uM): 31.3%
inhibition ([5]; Compound Concentration 10.0 uM): 5.22%
inhibition ([6]; Compound Concentration 10.0 uM): 10.3%
inhibition ([7]; Compound Concentration 10.0 uM): 38.5%
inhibition ([8]; Compound Concentration 10.0 uM): 1.85%

Nc1c(C(=O)NCc2ccc(C(=O)NCCCC3CCCCC3)cc2)cnn1-c1ccccc1
inhibition ([1]; Compound Concentration 1.0 uM): 59.9%
inhibition ([2]; Compound Concentration 10.0 uM): 5.04%
inhibition ([3]; Compound Concentration 1.0 uM): -2.11%
inhibition ([4]; Compound Concentration 1.0 uM): 3.4%
inhibition ([4]; Compound Concentration 10.0 uM): -1.31%
inhibition ([5]; Compound Concentration 1.0 uM): -7.24%
inhibition ([5]; Compound Concentration 10.0 uM): 4.78%
inhibition ([6]; Compound Concentration 1.0 uM): 3.23%
inhibition ([6]; Compound Concentration 10.0 uM): 19.8%
inhibition ([7]; Compound Concentration 1.0 uM): 47%
inhibition ([7]; Compound Concentration 10.0 uM): 35.6%
inhibition ([8]; Compound Concentration 1.0 uM): -8.91%

COc1cc2c(cc1CC=C(C)C)C(=O)C[C@@H](c1ccc(O)cc1)O2
inhibition ([1]; Compound Concentration 10.0 uM): 61.9%
inhibition ([2]; Compound Concentration 10.0 uM): -5.24%
inhibition ([4]; Compound Concentration 10.0 uM): 19.4%
inhibition ([5]; Compound Concentration 10.0 uM): 0.826%
inhibition ([6]; Compound Concentration 10.0 uM): 19.1%
inhibition ([7]; Compound Concentration 10.0 uM): 49.3%
inhibition ([8]; Compound Concentration 10.0 uM): -5.59%

O=C(NCc1ncc(C(F)(F)F)cc1Cl)c1ccc2c(c1)C1(CCS(=O)(=O)CC1)[C@H](C1CC1)N2S(=O)(=O)c1ccc(F)cc1
inhibition ([1]; Compound Concentration 1.0 uM): 59.6%
inhibition ([2]; Compound Concentration 1.0 uM): 2.13%
inhibition ([4]; Compound Concentration 1.0 uM): -4%
inhibition ([5]; Compound Concentration 1.0 uM): -0.35%
inhibition ([6]; Compound Concentration 1.0 uM): -6.07%
inhibition ([7]; Compound Concentration 1.0 uM): 38.8%
inhibition ([8]; Compound Concentration 1.0 uM): -0.744%

NC(=O)c1ccc2nc(-c3ccc(C4(N)CCC4)cc3)c(-c3ccccc3)n2n1
inhibition ([1]; Compound Concentration 1.0 uM): 31.7%
inhibition ([2]; Compound Concentration 1.0 uM): 26.6%
inhibition ([4]; Compound Concentration 1.0 uM): 21.7%
inhibition ([5]; Compound Concentration 1.0 uM): 3.74%
inhibition ([6]; Compound Concentration 1.0 uM): 4.13%
inhibition ([7]; Compound Concentration 1.0 uM): 71.4%
inhibition ([8]; Compound Concentration 1.0 uM): -7.61%

CC(=O)C1=C(C)N(c2cccc(C(F)(F)F)c2)C(=O)N[C@H]1c1ccc(C#N)nc1
inhibition ([1]; Compound Concentration 10.0 uM): 60.5%
inhibition ([2]; Compound Concentration 10.0 uM): -5.95%
inhibition ([4]; Compound Concentration 10.0 uM): 10.2%
inhibition ([5]; Compound Concentration 10.0 uM): -0.968%
inhibition ([6]; Compound Concentration 10.0 uM): -1.74%
inhibition ([7]; Compound Concentration 10.0 uM): 45.5%
inhibition ([8]; Compound Concentration 10.0 uM): 6.4%
